According to PMC11946893 (Nature, 2025):
Peptide text beside a SMILES is read from it.

What was measured:
S. enterica = test: Bacterial growth in conditioned medium; format: cell-based, Salmonella enterica
S. typhimurium = test: Intracellular infection assay; format: cell-based, S. typhimurium SL1344 in A549 cells; conditions: A549 cells expressing dTAG–PPP1CB pre-incubated 1 h with dTAG^V-1
M. luteus = test: Intracellular infection assay; format: cell-based, M. luteus in A549 cells; conditions: A549 cells expressing dTAG–PPP1CB pre-incubated 1 h with dTAG^V-1
CaCo-2 monolayer = test: TEER assay, CaCo-2 monolayer cocultured with P. aeruginosa; format: cell-based, human; conditions: P. aeruginosa coculture, 6 h, n = 3

CC[C@H](C(=O)N1CCCC[C@H]1C(=O)O[C@H](CCc1ccc(OC)c(OC)c1)c1ccccc1OCC(=O)NCCCCCCC(=O)N[C@H](C(=O)N1C[C@H](O)C[C@H]1C(=O)N[C@@H](C)c1ccc(-c2scnc2C)cc1)C(C)(C)C)c1cc(OC)c(OC)c(OC)c1 [dTAG^V-1]
reduction of bacterial growth in conditioned medium (S. enterica; A549 cells expressing dTAG–PPP1CB, 500 nM dTAG^V-1 for 6 h vs DMSO): 20%
intracellular bacterial infection (CFU counts, imaging) (S. typhimurium): attenuated intracellular bacterial infection significantly
intracellular bacterial infection (CFU counts) (M. luteus): attenuated intracellular bacterial infection significantly

CC[C@H](C)[C@H](NC(=O)[C@H](CC(N)=O)NC(=O)[C@H](Cc1ccccc1)NC(=O)[C@H](CCCNC(=N)N)NC(=O)[C@H](CCCNC(=N)N)NC(=O)[C@@H](N)CCCCN)C(=O)N[C@@H](CCCCN)C(=O)N[C@@H](CC(C)C)C(=O)N[C@@H](Cc1c[nH]c2ccccc12)C(=O)N[C@@H](CCCCN)C(=O)N[C@H](C(=O)N[C@@H](Cc1ccccc1)C(=O)O)[C@@H](C)O [PPP1CB] (H-KRRFNIKLWKTF-OH)
disruption of CaCo-2 barrier integrity by P. aeruginosa (TEER barrier index) (CaCo-2 monolayer): fully abolished

CC(=O)N[C@@H](CC(C)C)C(=O)N[C@@H](CC(C)C)C(=O)N[C@H](C=O)CCCNC(=N)N [leupeptin]
bacterial growth in conditioned medium (S. enterica; medium from cells treated with leupeptin 20 µM for 6 h): increase in bacterial growth
